For experiment [1], the system named is MRSA USA300. Description: Membrane leakage assay (SYTOX green). It counts as cell-based, Staphylococcus aureus. The following applies: 20 μg ml^−1. The method, then:
The effects of malacidin on membrane integrity was assessed using SYTOX green. In brief, single colonies of MRSA USA300 were grown in LB media with and without 15 mM CaCl2 to an OD600 nm of 0.35. Nine hundred microlitres of cells were mixed with 100 μL of 17 μM SYTOX green dye (Thermo Fisher). The resulting mixture was incubated for 5 min at 22° C., and then distributed to a microtiter plate at 50 μl per well. An initial reading of fluorescence pre-antibiotic addition was measured at excitation and emission wavelengths of 488 nm and 523 nm, respectively. Fifty microlitres of antibiotics was added to respective wells at a final concentration of 20 μg ml^−1. Measurements were immediately collected for 10 min. To assess the effects of malacidin on membrane depolarization, similar assays were set up using the membrane potential probe, DiBAC4 (bis-(1,3-dibutylbarbituric acid)trimethine oxonol). Single colonies of MRSA USA300 were grown in LB media with and without 15 mM CaCl2 to an OD600 nm of 0.35. Nine hundred microlitres of cells were mixed with 100 μl of 20 μg ml DiBAC4dye (Thermo Fisher). The resulting mixture was incubated for 5 min at 22° C., and then distributed to a microtiter plate at 50 μl per well. An initial reading of fluorescence pre-antibiotic addition was measured at excitation and emission wavelengths of 492 nm and 515 nm, respectively. Fifty microlitres of antibiotics was added to respective wells at a final concentration of 20 μg ml^−1. Measurements were immediately collected for 10 min. Representative examples from three technical replicates are shown.

The test system of experiment [2] is Salmonella enterica IR 715. Description: MIC assay, Salmonella enterica. The experiment is classed as cell-based. The method, then: (§1) MIC assays were performed in duplicate in 96-well microtiter plates on the basis of the protocol recommended by the Clinical and Laboratory Standards Institute (Cockerill, 2012, Clinical and Laboratory Standards Institute). All presented data are the average of at least three independent assays. Stock solutions of malacidin or daptomycin (2 mg ml^−1 in H2O) were added to the first well in a row and serially diluted (twofold per transfer) across the microtiter plate. CaCl2 was supplemented to media at a final concentration of 15 mM and fetal bovine serum (ATCC) was added to media (1:10) to test the effect of serum. Overnight cultures of bacteria were diluted 5,000-fold, and 50 μl was used as an inoculum in each well. MIC values were determined by visual inspection after 18 h incubation (30° C., static growth). For the enhanced calcium titration experiments, standard MIC assays were performed with methicillin-resistant Staphylococcus aureus (MRSA) PFGE strain type USA300 in media supplemented with CaCl2 at: 25.0, 18.8, 14.1, 7.03, 3.52, 2.50, 1.76, 0.880, 0.440, 0.250 and 0 mM. To assess the effects of monovalent and divalent cations on malacidin activity, standard MIC assays were performed with MRSA USA300 in media supplemented with 15 mM CaCl2, MgCl2, MnCl2, ZnCl2, SrCl2, NaCl and KCl. To evaluate the effects of pulmonary surfactants on activity against a community-acquired pneumonia-causing pathogen, standard MIC assays were performed with Streptococcus pneumoniae TCH8431 in media supplemented with both 15 mM CaCl1 and Survanta (beractant) at a final concentration of 5, 1, 0.5, 0.25 or 0% (volume/volume (v/v) percent).

Experiment [3] relates to Klebsiella pneumonia ATCC 10031. Description: MIC assay, Klebsiella pneumonia. The experiment is classed as cell-based. The method, then:
as §1

A further experiment concerns S. aureus NRS108. Description: MIC assay, S. aureus NRS108. It counts as cell-based, Staphylococcus aureus. Conditions: β-lactams. The method, then:
as §1

For experiment [4], the system named is Streptococcus pneumoniae TCH8431. Description: MIC assay, S. pneumoniae. The experiment is classed as cell-based. The method, then: as §1
For experiment [5], the system named is Lactobacillus rhamnosus NCTC 13031. Description: MIC assay, L. rhamnosus. It counts as cell-based. The method, then: as §1, with “To evaluate the effects of pulmonary surfactants on activity against a community-acquired pneumonia-causing pathogen, standard MIC assays were performed with Streptococcus pneumoniae TCH8431 in media supplemented with both 15 mM CaCl1 and Survanta (beractant) at a final concentration of 5, 1, 0.5, 0.25 or 0% (volume/volume (v/v) percent).” left out

Experiment [6] relates to MRSA USA300. Description: Selection for malacidin-resistant mutants. It counts as cell-based, Staphylococcus aureus. Conditions: 20 days of exposure to 0.5×MIC, 15 mM calcium. The method, then: To select for resistant mutants, a single MRSA USA300 colony from a freshly struck plate was inoculated into LB media and grown overnight at 37° C. The saturated overnight culture was diluted 100-fold, supplemented with a sub-lethal dose (0.5×MIC) of malacidin A, vancomycin, daptomycin or rifamycin and 15 mM calcium. Two-hundred-microlitre aliquots were then distributed into microtiter plate wells. The next day, 3 μl of culture from each well was used to inoculate 200 μl of calcium-supplemented media (15 mM calcium) with fresh antibiotic at 0.5× and 4×MIC. This process was repeated for 20 days. […] This was repeated over the course of the experiment to assess fold change in MIC at day 0 to day 20.

Experiment [7] concerns Cryptococcus neoformans ATCC 32045. Description: MIC assay, C. neoformans. It counts as cell-based. The method, then:
as §1

In the next experiment the test system is S. aureus COL. Description: MIC assay, S. aureus COL. Conditions: β-lactams. It counts as cell-based, Staphylococcus aureus. The method, then:
as §1

The test system of experiment [8] is Bacillus subtilis 168 IAI. Description: MIC assay, B. subtilis. The experiment is classed as cell-based. The method, then: as §1
A further experiment concerns S. aureus NRS140. Description: MIC assay, S. aureus NRS140. It counts as cell-based, Staphylococcus aureus. Conditions: β-lactams. The method, then:
as §1

Experiment [9] is described as follows: Complex formation with cell wall precursors (TLC mobility shift), C55-P. It counts as binding. The following applies: 1 nmol precursor, 0.5 nmol antibiotic. The method, then:
Binding of malacidin to C55-P and lipid II was evaluated by incubating 1 nmol of each purified precursor with 0.5 nmol of malacidin or daptomycin in 100 mM Tris-HCl, pH 7.5, 0.1% Triton X-100, 13 mM MgCl2, and with or without 25 mM CaCl2, for 60 min at 37° C. Subsequently, the mixture was extracted twice with n-BuOH/6 M pyridinium acetate buffer, pH 4.2 (3:1, v/v). The butanol fraction was evaporated and the residue was dissolved in CHCl3/methanol (1:1, v/v). The resuspension was analysed for the loss of unbound malacidin or daptomycin to a complex by TLC analysis using chloroform/methanol/water/ammonia (88:48:10:1, v/v/v/v) as the solvent and detection by 254/366 nm visualization. Experiments were performed with biological replicates.

In the case of malacidin A, the “Membrane leakage (SYTOX green or DiBAC4)” value in the experiment with MRSA USA300 [1] (absence of calcium supplementation) is “No membrane leakage”. Besides, the “Membrane leakage (SYTOX green fluorescence)” value with MRSA USA300 [1] (with calcium (15 mM CaCl2)) was “does not cause MRSA membrane leakage”. In addition, the MIC in experiment [2] was over 100 µg/mL; in experiment [3], over 100 µg/mL; in the experiment with S. aureus NRS108 (S. aureus NRS 108, gentamicin, kanamycin, 15 mM CaCl2), 0.2-0.8 μg m1^−1; in the experiment on S. aureus NRS108 (Staphylococcus aureus NRS108, Gentamicin, Kanamycin), 0.2 to 0.8 µg/mL; in experiment [4] (S. pneumoniae, 15 mM CaCl2) it was 0.8-2.0 μg m1^−1; in experiment [4] (Streptococcus pneumoniae TCH8431), 0.1 to 0.2 µg/mL. The MIC was 0.1-0.2 μg m1^−1 in experiment [5] (L. rhamnosus, 15 mM CaCl2); 0.1 to 0.2 µg/mL in experiment [5] (Lactobacillus rhamnosus NCTC 13031); over 100 μg m1^−1 in experiment [7] (C. neoformans, 15 mM CaCl2); over 100 µg/mL in experiment [7] (Cryptococcus neoformans ATCC 32045); 0.2-0.8 μg m1^−1 against S. aureus COL (S. aureus COL, 15 mM CaCl2); 0.2 to 0.8 µg/mL in the experiment with S. aureus COL (Staphylococcus aureus COL). Moreover, the MIC was 0.2-0.4 μg m1^−1 in experiment [8] (B. subtilis, 15 mM CaCl2); 0.2 to 0.4 µg/mL in experiment [8] (Bacillus subtilis 168 IAI); 0.4-0.8 μg m1^−1 in the experiment on S. aureus NRS140 (S. aureus NRS140, erythromycin, spectinomycin, 15 mM CaCl2); 0.4 to 2.0 µg/mL in the experiment on S. aureus NRS140 (Staphylococcus aureus NRS140, Erythromycin, Spectinomycin). In [4] (15 mM CaCl2 and Survanta (beractant) 0-5% v/v), the “Activity against S. pneumoniae in the presence of pulmonary surfactants” value is listed as “largely unaffected”. For the same substance, in the experiment on MRSA USA300 [6], the “Detection of resistant S. aureus after repeated exposure” value is “not detected”. Moreover, the “Sequestration of C55-P (TLC mobility shift)” value in experiment [9] is “did not sequester C55-P”.

Values taken from patent publication US11472843B2, “Malacidins and methods of use” (The Rockefeller University, priority 2017, dated 2022).
